The NIST ThermoML archive (doi:10.1021/je800246v)
± gives the expanded uncertainty stated by the source.

Assay: activity coefficient (dimensionless); of the first substance listed, at infinite dilution; xn = mol fraction of the nth substance listed
Settings: 101 kPa, Liquid, Chromatography, x1 = 0

Row | SMILES | activity coefficient (315.9 K) | activity coefficient (325.3 K) | activity coefficient (334.8 K) | activity coefficient (306.6 K)
1 | CC(C)CO [2-methyl-1-propanol] + CCCCn1cc[n+](C)c1.F[P-](F)(F)(F)(F)F | 5.03 ± 0.53 | 4.38 ± 0.46 | 3.84 ± 0.4 | 
2 | CO [methanol] + CCCC[n+]1ccc(C)cc1.F[B-](F)(F)F | 0.98 ± 0.1 | 0.907 ± 0.093 |  | 1.01 ± 0.1
3 | Cc1ccccc1 [toluene] + CCCCn1cc[n+](C)c1.F[P-](F)(F)(F)(F)F | 1.71 ± 0.18 | 1.59 ± 0.17 | 1.71 ± 0.18 | 
4 | Cc1ccccc1C [1,2-dimethylbenzene] + CCCCn1cc[n+](C)c1.F[P-](F)(F)(F)(F)F | 2.37 ± 0.25 | 2.21 ± 0.23 | 2.2 ± 0.23 | 
5 | Cc1ccc(C)cc1 [1,4-dimethylbenzene] + CCCCn1cc[n+](C)c1.F[P-](F)(F)(F)(F)F | 2.27 ± 0.24 | 2.24 ± 0.24 | 2.28 ± 0.24 | 
6 | Cc1cccc(C)c1 [1,3-dimethylbenzene] + CCCCn1cc[n+](C)c1.F[P-](F)(F)(F)(F)F | 2.38 ± 0.25 | 2.43 ± 0.26 | 2.36 ± 0.25 | 
7 | CC(=O)CC(C)=O [2,4-pentanedione] + CCCCn1cc[n+](C)c1.F[P-](F)(F)(F)(F)F | 1.15 ± 0.12 | 1.07 ± 0.11 | 1.03 ± 0.1 | 
8 | CCC(C)=O [butanone] + CCCC[n+]1ccc(C)cc1.F[B-](F)(F)F | 1.57 ± 0.16 | 1.59 ± 0.17 |  | 1.53 ± 0.16
9 | CCO [ethanol] + CCCC[n+]1ccc(C)cc1.F[B-](F)(F)F | 1.62 ± 0.17 | 1.49 ± 0.15 |  | 1.7 ± 0.18
10 | CCC(C)=O [butanone] + CCCCn1cc[n+](C)c1.F[P-](F)(F)(F)(F)F | 0.987 ± 0.1 | 0.99 ± 0.1 | 0.983 ± 0.1 | 
11 | CC(C)=O [acetone] + CCCCn1cc[n+](C)c1.F[P-](F)(F)(F)(F)F | 0.707 ± 0.074 | 0.709 ± 0.074 | 0.699 ± 0.073 | 
12 | CC(C)=O [acetone] + CCCC[n+]1ccc(C)cc1.F[B-](F)(F)F | 1.01 ± 0.1 | 1.03 ± 0.1 |  | 0.995 ± 0.1

Second part, led by results:

Row | activity coefficient (315.9 K) | activity coefficient (325.3 K) | activity coefficient (334.8 K) | SMILES | activity coefficient (306.6 K)
13 | 4.7 ± 0.49 | 4.14 ± 0.44 | 3.78 ± 0.4 | CCC(O)CC [3-pentanol] + CCCCn1cc[n+](C)c1.F[P-](F)(F)(F)(F)F | 
14 | 3.65 ± 0.38 | 3.16 ± 0.33 | 2.85 ± 0.3 | CC(C)O [propan-2-ol] + CCCCn1cc[n+](C)c1.F[P-](F)(F)(F)(F)F | 
15 | 5.66 ± 0.59 | 4.99 ± 0.52 | 4.38 ± 0.46 | CCCC(C)O (stereo unspecified) [pentan-2-ol] + CCCCn1cc[n+](C)c1.F[P-](F)(F)(F)(F)F | 
16 | 5.59 ± 0.59 | 4.77 ± 0.5 | 4.24 ± 0.45 | CCCCO [butan-1-ol] + CCCCn1cc[n+](C)c1.F[P-](F)(F)(F)(F)F | 
17 | 4.01 ± 0.42 | 3.46 ± 0.36 | 3.18 ± 0.33 | CCCO [propan-1-ol] + CCCCn1cc[n+](C)c1.F[P-](F)(F)(F)(F)F | 
18 | 2.16 ± 0.23 | 1.95 ± 0.2 | 1.81 ± 0.19 | CO [methanol] + CCCCn1cc[n+](C)c1.F[P-](F)(F)(F)(F)F | 
19 | 3.02 ± 0.32 | 2.69 ± 0.28 | 2.47 ± 0.26 | CCO [ethanol] + CCCCn1cc[n+](C)c1.F[P-](F)(F)(F)(F)F | 
20 | 4.29 ± 0.45 | 3.78 ± 0.4 | 3.37 ± 0.35 | CCC(C)O (stereo unspecified) [butan-2-ol] + CCCCn1cc[n+](C)c1.F[P-](F)(F)(F)(F)F | 
21 | 9.71 ± 1 | 8.01 ± 0.84 | 6.47 ± 0.68 | CCCCCO [pentan-1-ol] + CCCCn1cc[n+](C)c1.F[P-](F)(F)(F)(F)F | 
22 | 7.71 ± 0.81 | 6.34 ± 0.67 | 5.2 ± 0.55 | CC(C)CCO [3-methylbutan-1-ol] + CCCCn1cc[n+](C)c1.F[P-](F)(F)(F)(F)F | 
